How the values were obtained:
[1] = target: BaF3(T315I) (Homo sapiens, UniProt P00519, T315I, cells depend on it); assay: WST (CCK-8) anti-proliferation assay, BaF3 T315I cells; conditions: read-out: BaF3(T315I); anti-proliferative IC50, 72 h treatment, CCK-8, BaF3 T315I
[2] = target: BaF3(WT) (Homo sapiens, UniProt P00519); assay: WST (CCK-8) anti-proliferation assay, BaF3 WT cells; conditions: read-out: BaF3(WT); anti-proliferative IC50, 72 h treatment, CCK-8, BaF3 WT

Row | GI50 [1] [µM] | GI50 [2] [µM] | Structure (SMILES)
1 | 0.574 | 0.123 | O=C(Nc1ccc(OC(F)(F)Cl)cc1)c1cc2c(c(-c3ccn[nH]3)c1)N(C1CCCCC1)CC2 [VII-3, N-(4-(chlorodifluoromethoxy)phenyl)-1-cyclohexyl-7-(1H-pyrazol-5-yl) indoline-5-carboxamide]
2 | 0.474 | 0.018 | CC(C)N1CCc2cc(C(=O)Nc3ccc(SC(F)(F)F)cc3)cc(-c3ccn[nH]3)c21 [VII-45, 1-isopropyl-7-(1H-pyrazol-5-yl)-N-(4-((trifluoromethyl)thio)phenyl)indoline-5-carboxamide]
3 | 1.35 | 0.145 | CC(C)N1c2c(cc(C(=O)Nc3ccc(OC(F)(F)Cl)cc3)cc2-c2cncnc2)CC1C(=O)NCCS(C)(=O)=O (centres unmarked) [VII-22, N5-(4-(chlorodifluoromethoxy)phenyl)-1-isopropyl-N2-(2-(methylsulfonyl)ethyl)-7-(pyrimidin-5-yl)indoline-2,5-dicarboxamide]
4 | 0.423 | 0.078 | CC(C)N1c2c(cc(C(=O)Nc3ccc(OC(F)(F)Cl)cc3)cc2-c2ccn[nH]2)CC1C(=O)N1CCS(=O)(=O)CC1 (centres unmarked) [VII-31, N-(4-(chlorodifluoromethoxy)phenyl)-2-(1,1-dioxidothiomorpholine-4-carbonyl)-1-isopropyl-7-(1H-pyrazol-5-yl)indoline-5-carboxamide]
5 | 0.484 | 0.124 | CC(=O)N(C)CC1Cc2cc(C(=O)Nc3ccc(OC(F)(F)Cl)cc3)cc(-c3ccn[nH]3)c2N1C(C)C (centres unmarked) [VII-18, N-(4-(chlorodifluoromethoxy)phenyl)-1-isopropyl-2-((N-methylacetamido)methyl)-7-(1H-pyrazol-5-yl)indoline-5-carboxamide]
6 | 0.136 | 0.042 | CC(C)N1CCc2cc(C(=O)Nc3ccc(OC(F)(F)Cl)cc3)cc(-c3cncnc3)c21 [VII-4, N-(4-(chlorodifluoromethoxy)phenyl)-1-isopropyl-7-(pyrimidin-5-yl)indoline-5-carboxamide]
7 | 0.946 | 0.029 | O=C(Nc1ccc(OC(F)(F)Cl)cc1)c1cc2c(c(-c3ccn[nH]3)c1)N(C1CC(CCl)C1)CC2 (centres unmarked) [VII-11, N-(4-(chlorodifluoromethoxy)phenyl)-1-(3-(chloromethyl)cyclobutyl)-7-(1H-pyrazol-3-yl)indoline-5-carboxamide]
8 | 3.23 | 0.584 | CNCC1Cc2cc(C(=O)Nc3ccc(OC(F)(F)Cl)cc3)cc(-c3ccn[nH]3)c2N1C(C)C (centres unmarked) [VII-17, N-(4-(chlorodifluoromethoxy)phenyl)-1-isopropyl-2-((methylamino)methyl)-7-(1H-pyrazol-5-yl) indoline-5-carboxamide]
9 | 1.05 | 0.235 | CC(C)N1CCCc2cc(C(=O)Nc3ccc(OC(F)(F)Cl)cc3)cc(-c3ccn[nH]3)c21 [IX-1, N-(4-(chlorodifluoromethoxy)phenyl)-1-isopropyl-8-(1H-pyrazol-5-yl)-1,2,3,4-tetrahydroquinoline-6-carboxamide]
10 | 0.395 | 0.041 | CC1CN(C(C)C)c2c(-c3cncnc3)cc(C(=O)Nc3ccc(OC(F)(F)Cl)cc3)cc21 (centres unmarked) [VII-37, N-(4-(chlorodifluoromethoxy)phenyl)-1-isopropyl-3-methyl-7-(pyrimidin-5-yl)indoline-5-carboxamide]
11 | 1.41 | 0.266 | CC(C)N1c2c(cc(C(=O)Nc3ccc(OC(F)(F)Cl)cc3)cc2-c2ccn[nH]2)CC1CN(C)C (centres unmarked) [VII-13, N-(4-(chlorodifluoromethoxy)phenyl)-2-((dimethylamino)methyl)-1-isopropyl-7-(1H-pyrazol-5-yl)indoline-5-carboxamide]
12 | 0.344 | 0.057 | CC(C)n1cc(CO)c2cc(C(=O)Nc3ccc(OC(F)(F)Cl)cc3)cc(-c3ccn[nH]3)c21 [XII-8, N-(4-(chlorodifluoromethoxy)phenyl)-3-(hydroxymethyl)-1-isopropyl-7-(1H-pyrazol-5-yl)-1H-indole-5-carboxamide]
13 | 0.666 | 0.066 | CN1CCc2cc(C(=O)Nc3ccc(SC(F)(F)F)cc3)cc(-c3ccn[nH]3)c21 [VII-44, 1-methyl-7-(1H-pyrazol-5-yl)-N-(4-((trifluoromethyl)thio)phenyl)indoline-5-carboxamide]
14 | 0.243 | 0.058 | CC(C)N1c2c(cc(C(=O)Nc3ccc(OC(F)(F)Cl)cc3)cc2-c2ccn[nH]2)CC1C(=O)N1CCOCC1 (centres unmarked) [VII-25, N-(4-(chlorodifluoromethoxy)phenyl)-1-isopropyl-2-(morpholine-4-carbonyl)-7-(1H-pyrazol-5-yl)indoline-5-carboxamide]
15 | 0.575 | 0.132 | CNCC1CN(C(C)C)c2c(-c3ccn[nH]3)cc(C(=O)Nc3ccc(OC(F)(F)Cl)cc3)cc21 (centres unmarked) [VII-28, N-(4-(chlorodifluoromethoxy)phenyl)-1-isopropyl-3-((methylamino)methyl)-7-(1H-pyrazol-5-yl)indoline-5-carboxamide]
16 | 1.05 | 0.062 | CC1CN(C)c2c(-c3ccn[nH]3)cc(C(=O)Nc3ccc(OC(F)(F)Cl)cc3)cc21 (centres unmarked) [VII-39, N-(4-(chlorodifluoromethoxy)phenyl)-1,3-dimethyl-7-(1H-pyrazol-5-yl)indoline-5-carboxamide]
17 | 0.418 | 0.061 | CC1(C)CN(S(C)(=O)=O)c2cc(C(=O)Nc3ccc(OC(F)(F)Cl)cc3)cc(-c3ccn[nH]3)c21 [III-5, N-(4-(chlorodifluoromethoxy)phenyl)-3,3-dimethyl-1-(methylsulfonyl)-4-(1H-pyrazol-5-yl)indoline-6-carboxamide]
18 | 1.06 | 0.121 | CC1(C)c2c(cc(C(=O)Nc3ccc(OC(F)(F)Cl)cc3)cc2-c2ccn[nH]2)C(=O)N1CCO [IV-5, N-(4-(chlorodifluoromethoxy)phenyl)-2-(2-hydroxyethyl)-1,1-dimethyl-3-oxo-7-(1H-pyrazol-5-yl)isoindoline-5-carboxamide]
19 | 1.09 | 0.133 | CC1c2cc(C(=O)Nc3ccc(OC(F)(F)Cl)cc3)cc(-c3ccn[nH]3)c2N(C(C)C)C1CO (centres unmarked) [VII-19, N-(4-(chlorodifluoromethoxy)phenyl)-2-(hydroxymethyl)-1-isopropyl-3-methyl-7-(1H-pyrazol-5-yl)indoline-5-carboxamide]
20 | 1.57 | 0.501 | CN1CCN(CCN2C(=O)c3cc(C(=O)Nc4ccc(OC(F)(F)Cl)cc4)cc(-c4ccn[nH]4)c3C2(C)C)CC1 [IV-6, N-(4-(chlorodifluoromethoxy)phenyl)-1,1-dimethyl-2-(2-(4-methylpiperazin-1-yl)ethyl)-3-oxo-7-(1H-pyrazol-5-yl)isoindoline-5-carboxamide]
21 | 0.79 | 0.094 | CC1(C)CNc2cc(C(=O)Nc3ccc(OC(F)(F)Cl)cc3)cc(-c3ccn[nH]3)c21 [III-3, N-(4-(chlorodifluoromethoxy)phenyl)-3,3-dimethyl-4-(1H-pyrazol-5-yl)indoline-6-carboxamide]
22 | 0.535 | 0.08 | CC(C)N1CCOc2cc(C(=O)Nc3ccc(OC(F)(F)Cl)cc3)cc(-c3ccn[nH]3)c21 [IX-3, N-(4-(chlorodifluoromethoxy)phenyl)-4-isopropyl-5-(1H-pyrazol-5-yl)-3,4-dihydro-2H-benzo[b][1,4] oxazine-7-carboxamide]
23 | 0.094 | 0.016 | COCCN(CCOC)C(=O)C1Cc2cc(C(=O)Nc3ccc(OC(F)(F)Cl)cc3)cc(-c3ccn[nH]3)c2N1C(C)C (centres unmarked) [VII-30, N^5-(4-(chlorodifluoromethoxy)phenyl)-1-isopropyl-N2,N2-bis(2-methoxyethyl)-7-(1H-pyrazol-5-yl)indoline-2,5-dicarboxamide]
24 | 3.34 | 0.399 | Cc1ccc(-c2cc(C(=O)Nc3ccc(OC(F)(F)Cl)cc3)cc3c2C(C)(C)N(C)C3=O)o1 [IV-2, N-(4-(chlorodifluoromethoxy)phenyl)-1,1,2-trimethyl-7-(5-methylfuran-2-yl)-3-oxoisoindoline-5-carboxamide]
25 | 3.27 | 0.505 | CC(C)n1cc(Cl)c2cc(C(=O)Nc3ccc(OC(F)(F)Cl)cc3)cc(-c3ccn[nH]3)c21 [XII-3, 3-chloro-N-(4-(chlorodifluoromethoxy)phenyl)-1-isopropyl-7-(1H-pyrazol-5-yl)-1H-indole-5-carboxamide]
26 | 1.74 | 0.231 | CC(C)N1c2c(cc(C(=O)Nc3ccc(OC(F)(F)Cl)cc3)cc2-c2ccn[nH]2)CC1CC(=O)N(C)C (centres unmarked) [VII-36, N-(4-(chlorodifluoromethoxy)phenyl)-2-(2-(dimethylamino)-2-oxoethyl)-1-isopropyl-7-(1H-pyrazol-5-yl)indoline-5-carboxamide]
27 | 0.332 | 0.016 | CC(C)N1CC(CO)c2cc(C(=O)Nc3ccc(OC(F)(F)Cl)cc3)cc(-c3ccn[nH]3)c21 (centres unmarked) [VII-43, N-(4-(chlorodifluoromethoxy)phenyl)-3-(hydroxymethyl)-1-isopropyl-7-(1H-pyrazol-5-yl)indoline-5-carboxamide]
28 | 0.332 | 0.162 | CN1CCCc2cc(C(=O)Nc3ccc(OC(F)(F)Cl)cc3)cc(-c3ccn[nH]3)c21 [IX-2, N-(4-(chlorodifluoromethoxy)phenyl)-1-methyl-8-(1H-pyrazol-5-yl)-1,2,3,4-tetrahydroquinoline-6-carboxamide]
29 | 0.335 | 0.144 | O=C(Nc1ccc(OC(F)(F)Cl)cc1)c1cc2c(c(-c3cc[nH]n3)c1)C1(CCC(O)C1)C(=O)N2 (centres unmarked) [V-5, N-(4-(chlorodifluoromethoxy)phenyl)-3-hydroxy-2′-oxo-4′-(1H-pyrazol-5-yl)spiro[cyclopentane-1,3′-indoline]-6′-carboxamide]
30 |  | 1.55 | CN1CCC2(C1)C(=O)Nc1cc(C(=O)Nc3ccc(OC(F)(F)Cl)cc3)cc(-c3cc[nH]n3)c12 (centres unmarked) [V-8, N-(4-(chlorodifluoromethoxy)phenyl)-1′-methyl-2-oxo-4-(1H-pyrazol-3-yl)spiro[indoline-3,3′-pyrrolidine]-6-carboxamide]

Reference: patent publication US20220332701A1, “HETEROCYCLIC COMPOUNDS AS BCR-ABL INHIBITORS” (ASCENTAGE PHARMA (SUZHOU) CO., LTD., priority 2019, published 2022)
